Results from patent US20200325177A1, “METHODS OF MAKING STREPTOGRAMIN COMPOSITIONS AND THE USE THEREOF” (THE REGENTS OF THE UNIVERSITY OF CALIFORNIA, priority 2017, published 2020).
≈ marks a conversion by molar mass, not a printed value. Where two headings read alike, the source gives them in different places.

Legend:
Type in all cases: cell-based
S. pneumoniae = assay: MIC, Gram-positive bacteria: S. pneumoniae; settings: Streptococcus pneumoniae, column 10, read-out: Minimal Inhibitory Concentration (MIC) S. pneumoniae
[1] = system: K. pneumoniae multidrug-resistant; assay: MIC, Gram-negative bacteria: K. pneumoniae multidrug-resistant; settings: Klebsiella pneumoniae, read-out: Minimal Inhibitory Concentration (MIC) K. pneumoniae multidrug-resistant
Gram-Negative Organisms = assay: microbe, parasite or virus in culture
[2] = system: S. aureus Vat A streptogramin; assay: MIC, Gram-positive bacteria: S. aureus Vat A streptogramin; settings: Staphylococcus aureus; Gram-positive; column 5; read-out: Minimal Inhibitory Concentration (MIC) S. aureus Vat A streptogramin
E. faecium VRE; vanA = assay: MIC, Gram-positive bacteria: E. faecium VRE; vanA; settings: Enterococcus faecium, column 3, read-out: Minimal Inhibitory Concentration (MIC) E. faecium VRE
[3] = system: P. aeruginosa MDR clinical isolate; assay: MIC, Gram-negative bacteria: P. aeruginosa MDR clinical isolate; settings: Pseudomonas aeruginosa, read-out: Minimal Inhibitory Concentration (MIC) P. aeruginosa MDR clinical isolate
[4] = system: S. aureus Linezolid-resistant; cfr; assay: MIC, Gram-positive bacteria: S. aureus Linezolid-resistant; cfr; settings: Staphylococcus aureus, column 9, read-out: Minimal Inhibitory Concentration (MIC) S. aureus Linezolid-resistant
H. influenzae ATCC 49247 = assay: MIC, Gram-negative bacteria: H. influenzae ATCC 49247; settings: Haemophilus influenzae, ATCC49247, read-out: Minimal Inhibitory Concentration (MIC) H. influenzae ATCC 49247
E. faecalis = assay: MIC, Gram-positive bacteria: E. faecalis; settings: Enterococcus faecalis, column 1, read-out: Minimal Inhibitory Concentration (MIC) E. faecalis
S. aureus = assay: MIC, Gram-positive bacteria: S. aureus (strains not named); settings: Staphylococcus aureus, read-out: Minimal Inhibitory Concentration (MIC) S. aureus
P. aeruginosa ATCC 27853 = assay: MIC, Gram-negative bacteria: P. aeruginosa ATCC 27853; settings: Pseudomonas aeruginosa, ATCC27853, read-out: Minimal Inhibitory Concentration (MIC) P. aeruginosa ATCC 27853
E. faecium ATCC 35667 = assay: MIC, Gram-positive bacteria: E. faecium ATCC 35667; settings: Enterococcus faecium, ATCC35667, column 2, read-out: Minimal Inhibitory Concentration (MIC) E. faecium ATCC 35667
[5] = Acinetobacter baumannii, ATCC19606, read-out: Minimal Inhibitory Concentration (MIC), A. baumannii ATCC 19606
[6] = Escherichia coli, ATCC25922, read-out: Minimal Inhibitory Concentration (MIC), E. coli ATCC 25922
[7] = Escherichia coli, read-out: Minimal Inhibitory Concentration (MIC), E. coli BAS2006, OMP C, OMP F
[8] = Escherichia coli, read-out: Minimal Inhibitory Concentration (MIC), E. coli olC efflux defective
[9] = Escherichia coli, read-out: Minimal Inhibitory Concentration (MIC), E. coli permeability mutant BAS1314, IMP4213ZAB::TN10
[10] = Klebsiella pneumoniae, ATCC43816, read-out: Minimal Inhibitory Concentration (MIC), K. pneumoniae ATCC 43816
[11] = first unnamed S. aureus column (c4)
[12] = fourth unnamed S. aureus column (c8)
[13] = second unnamed S. aureus column (c6)
[14] = third unnamed S. aureus column (c7)
[15] = Escherichia coli, read-out: Minimal Inhibitory Concentration (MIC), E. coli ΔompC768, KanR insert

Row | SMILES | MIC (S. pneumoniae) | MIC [1] | MIC (Gram-Negative Organisms; [5]) | MIC (Gram-Negative Organisms; [6]) | MIC (Gram-Negative Organisms; [7]) | MIC (Gram-Negative Organisms; [8]) | MIC (Gram-Negative Organisms; [9]) | MIC (Gram-Negative Organisms; [10]) | MIC [2] | MIC (E. faecium VRE; vanA) | MIC [3] | MIC [4] | MIC (H. influenzae ATCC 49247) | MIC (E. faecalis) | MIC (S. aureus; [11]) | MIC (S. aureus; [12]) | MIC (S. aureus; [13]) | MIC (S. aureus; [14]) | MIC (P. aeruginosa ATCC 27853) | MIC (E. faecium ATCC 35667) | also measured
1 | CC1=C\[C@@H](O)CC(=O)Cc2nc(co2)C(=O)N2CCC[C@@H]2C(=O)O[C@H]([C@@H](C)COC(=O)Nc2ccc(C(F)(F)F)cc2)[C@H](C)/C=C/C(=O)NC\C=C\1 [SA0110044] | > 64 µg/mL | > 64 µg/mL | > 64 µg/mL | > 64 µg/mL | > 64 µg/mL | 16 µg/mL (≈ 21.9 µM) | 16 µg/mL (≈ 21.9 µM) | > 64 µg/mL | > 64 µg/mL | > 64 µg/mL | > 64 µg/mL | > 64 µg/mL | > 64 µg/mL | > 64 µg/mL | > 64 µg/mL | 32 µg/mL (≈ 43.8 µM) | > 64 µg/mL | > 64 µg/mL | > 64 µg/mL | 16 µg/mL (≈ 21.9 µM) | –
2 | CC1=C\[C@@H](O)CC(=O)Cc2nc(co2)C(=O)N2CCC[C@@H]2C(=O)O[C@H]([C@@H](C)COC(=O)Nc2ccc(OC(F)(F)F)cc2)[C@H](C)/C=C/C(=O)NC\C=C\1 [SA0110041] | > 64 µg/mL | > 64 µg/mL | > 64 µg/mL | > 64 µg/mL | > 64 µg/mL | 8 µg/mL (≈ 10.7 µM) | 8 µg/mL (≈ 10.7 µM) | > 64 µg/mL | > 64 µg/mL | > 64 µg/mL | > 64 µg/mL | > 64 µg/mL | > 64 µg/mL | > 64 µg/mL | > 64 µg/mL | 32 µg/mL (≈ 42.9 µM) | > 64 µg/mL | > 64 µg/mL | > 64 µg/mL | 8 µg/mL (≈ 10.7 µM) | –
3 | CC1=C\[C@@H](O)C[C@@H](O)Cc2nc(cs2)C(=O)N2CCC[C@@H]2C(=O)O[C@H](C(C)C)[C@H](C)/C=C/C(=O)NC\C=C\1 [SA0110264] | 2 µg/mL (≈ 3.67 µM) | > 64 µg/mL | > 64 µg/mL | > 64 µg/mL | 4 µg/mL (≈ 7.33 µM) | 2 µg/mL (≈ 3.67 µM) | 1 µg/mL (≈ 1.83 µM) | > 64 µg/mL | > 64 µg/mL | 4 µg/mL (≈ 7.33 µM) | > 64 µg/mL | > 64 µg/mL | 1 µg/mL (≈ 1.83 µM) | > 64 µg/mL | 8 µg/mL (≈ 14.7 µM) | 8 µg/mL (≈ 14.7 µM) | 16 µg/mL (≈ 29.3 µM) | 16 µg/mL (≈ 29.3 µM) | > 64 µg/mL | 1 µg/mL (≈ 1.83 µM) | MIC (Gram-Negative Organisms; [15]): > 64 µg/mL
4 | CC1=C\[C@@H](O)CC(N)Cc2nc(cs2)C(=O)N2CCC[C@@H]2C(=O)O[C@H](C(C)C)[C@H](C)/C=C/C(=O)NC\C=C\1 (stereo partly shown) [SA0110268] | 32 µg/mL (≈ 58.7 µM) | > 64 µg/mL | > 64 µg/mL | > 64 µg/mL | 16 µg/mL (≈ 29.4 µM) | 2 µg/mL (≈ 3.67 µM) | 2 µg/mL (≈ 3.67 µM) | > 64 µg/mL | > 64 µg/mL | > 64 µg/mL | > 64 µg/mL | > 64 µg/mL | 64 µg/mL (≈ 117 µM) | > 64 µg/mL | > 64 µg/mL | > 64 µg/mL | > 64 µg/mL | > 64 µg/mL | > 64 µg/mL | 64 µg/mL (≈ 117 µM) | MIC (Gram-Negative Organisms; [15]): > 64 µg/mL
5 | CC1=C\[C@@H](O)CC(=O)Cc2nc(co2)C(=O)N2CCC[C@@H]2C(=O)O[C@H]([C@H](C)COC(=O)Nc2ccn(C)n2)[C@H](C)/C=C/C(=O)NC\C=C\1 [SA0110218] | > 64 µg/mL | > 64 µg/mL | > 64 µg/mL | > 64 µg/mL | > 64 µg/mL | 16 µg/mL (≈ 24 µM) | 32 µg/mL (≈ 48 µM) | > 64 µg/mL | > 64 µg/mL | > 64 µg/mL | > 64 µg/mL | > 64 µg/mL | 32 µg/mL (≈ 48 µM) | > 64 µg/mL | > 64 µg/mL | > 64 µg/mL | > 64 µg/mL | > 64 µg/mL | > 64 µg/mL | > 64 µg/mL | MIC (Gram-Negative Organisms; [15]): > 64 µg/mL
6 | CC1=C\[C@@H](O)CC(=O)Cc2nc(co2)C(=O)N2CCC[C@@H]2C(=O)O[C@H]([C@@H](C)COC(=O)Nc2ccc(C)cc2)[C@H](C)/C=C/C(=O)NC\C=C\1 [SA0110037] | 16 µg/mL (≈ 23.6 µM) | > 64 µg/mL | > 64 µg/mL | > 64 µg/mL | 16 µg/mL (≈ 23.6 µM) | 4 µg/mL (≈ 5.91 µM) | 8 µg/mL (≈ 11.8 µM) | > 64 µg/mL | > 64 µg/mL | 64 µg/mL (≈ 94.6 µM) | > 64 µg/mL | > 64 µg/mL | > 64 µg/mL | > 64 µg/mL | 32 µg/mL (≈ 47.3 µM) | 16 µg/mL (≈ 23.6 µM) | 32 µg/mL (≈ 47.3 µM) | 64 µg/mL (≈ 94.6 µM) | > 64 µg/mL | 16 µg/mL (≈ 23.6 µM) | –
7 | CC1=C\[C@@H](O)CC(=O)Cc2nc(co2)C(=O)N2CCC[C@@H]2C(=O)O[C@H]([C@@H](C)COC(=O)Nc2ccn(C)n2)[C@H](C)/C=C/C(=O)NC\C=C\1 [SA0110113] | 8 µg/mL (≈ 12 µM) | > 64 µg/mL | > 64 µg/mL | > 64 µg/mL | 64 µg/mL (≈ 96 µM) | 8 µg/mL (≈ 12 µM) | 16 µg/mL (≈ 24 µM) | > 64 µg/mL | > 64 µg/mL | > 64 µg/mL | > 64 µg/mL | > 64 µg/mL | 64 µg/mL (≈ 96 µM) | > 64 µg/mL | > 64 µg/mL | > 64 µg/mL | > 64 µg/mL | > 64 µg/mL | > 64 µg/mL | 64 µg/mL (≈ 96 µM) | –
8 | CC1=C\[C@@H](O)CC(=O)Cc2nc(co2)C(=O)N[C@H](CCCCN)C(=O)O[C@H](C(C)C)[C@H](C)/C=C/C(=O)NC\C=C\1 [SA0202094] | > 64 µg/mL | > 64 µg/mL | > 64 µg/mL | > 64 µg/mL | > 64 µg/mL | > 64 µg/mL | 32 µg/mL (≈ 57.3 µM) | > 64 µg/mL | > 64 µg/mL | > 64 µg/mL | > 64 µg/mL | > 64 µg/mL | > 64 µg/mL | > 64 µg/mL | > 64 µg/mL | > 64 µg/mL | > 64 µg/mL | > 64 µg/mL | > 64 µg/mL | > 64 µg/mL | MIC (Gram-Negative Organisms; [15]): > 64 µg/mL
9 | CC1=C\[C@@H](O)CC(=O)Cc2nc(co2)C(=O)N2CCC[C@@H]2C(=O)O[C@H]([C@H](C)COC(=O)Nc2ccc(Br)nc2)[C@H](C)/C=C/C(=O)NC\C=C\1 [SA0110209] | 16 µg/mL (≈ 21.5 µM) | > 64 µg/mL | > 64 µg/mL | > 64 µg/mL | > 64 µg/mL | 2 µg/mL (≈ 2.69 µM) | 2 µg/mL (≈ 2.69 µM) | > 64 µg/mL | > 64 µg/mL | > 64 µg/mL | > 64 µg/mL | > 64 µg/mL | 8 µg/mL (≈ 10.8 µM) | > 64 µg/mL | 16 µg/mL (≈ 21.5 µM) | 16 µg/mL (≈ 21.5 µM) | 16 µg/mL (≈ 21.5 µM) | > 64 µg/mL | > 64 µg/mL | 16 µg/mL (≈ 21.5 µM) | MIC (Gram-Negative Organisms; [15]): > 64 µg/mL
10 | CC1=C\[C@@H](O)CC(=O)Cc2nc(co2)C(=O)N2CCC[C@@H]2C(=O)O[C@H]([C@@H](C)COC(=O)Nc2cccnc2)[C@H](C)/C=C/C(=O)NC\C=C\1 [SA0110067] | 32 µg/mL (≈ 48.2 µM) | > 64 µg/mL | > 64 µg/mL | > 64 µg/mL | 64 µg/mL (≈ 96.4 µM) | 8 µg/mL (≈ 12.1 µM) | 32 µg/mL (≈ 48.2 µM) | > 64 µg/mL | > 64 µg/mL | > 64 µg/mL | > 64 µg/mL | > 64 µg/mL | > 64 µg/mL | > 64 µg/mL | > 64 µg/mL | 64 µg/mL (≈ 96.4 µM) | > 64 µg/mL | > 64 µg/mL | > 64 µg/mL | 32 µg/mL (≈ 48.2 µM) | –
